Measured values published in patent US20230293406A1, “Compositions Comprising (Bio)-Alkanediols and Cooling Agents” (Symrise AG, priority 2020, published 2023).
Converted amounts (≈) assume the structure as drawn. Read-outs that look alike come from different tables or passages of the source.

Key:
[1] = system: Corynebacterium xerosis; experiment: Minimum Inhibitory Concentration (MIC) growth inhibition test and Kull Synergy Index; format: cell-based; details: for MIC: Corynebacterium xerosis, read-out: MIC (ppm) Corynebacterium xerosis (converted)
Procedure: (§1) The MIC test is a test on growth inhibition. Estimation of the Minimum Inhibitory Concentration (MIC) is executed in 96 well plates. Through the comparison of bacterial growth with positive and negative controls via optical density (OD), different concentrations of given test substances are evaluated. Bacteria are cultivated under adjusted conditions based on information of the German Collection of Microorganisms and Cell Cultures (DSMZ) and stored in 50% Glycerol prior to use. Afterwards, the following method was applied:
(§2) Adding growth medium (according to microorganism) to each well of the microplate. Adding the test-substances in different concentrations, positive controls (water controls only with medium) and negative controls (benchmarks according to organism). Adding the microorganism in a concentration of 10^6 CFU/ml (CFU=colony forming units). Incubation of the microplates at appropriate conditions.
(§3) According to resulting growth, substance concentrations are labelled either as inhibiting or not and the corresponding MIC is defined as the lowest concentration where a complete growth inhibition is visible. Experiments at concentration limits (highest concentration labelled as growth and lowest concentration labelled as inhibiting) are performed at least twice.
(§4) The synergistic activity of 1,2-alkanediols with cooling compounds was determined by measuring the corresponding minimum inhibitory concentrations (MIC values) according to the method described above for antimicrobial activity: Minimum Inhibitory Concentration (MIC)
(§5) In order to calculate the synergy index with MIC values, the Kull equation (I) was used as follows:
(§6) SI=(MICmix×PA)/MICA+(MICmix×PB)/MICB (I)
(§7) wherein • SI is the Synergy Index according to Kull • MICA is the MIC value for Substance A • MICB is the MIC value for Substance B • MICmix is the MIC value for the mixture of substances A and B • PA is the proportion of the substance A in the mixture • PB is the proportion of the substance B in the mixture
(§8) To verify that the tested combinations act synergistically against microorganisms of the natural microbiota of mammalian skin, a corresponding experiment was conducted with representative microbial species. The synergistic activities of mixtures of 1,2-heptanediol and Menthyl lactate as well as for 1,2-nonanediol and Menthyl lactate were determined by measuring the corresponding minimum inhibitory concentrations (MIC values) as indicated in the methods section.

[2] = system: Staphylococcus aureus; experiment: Minimum Inhibitory Concentration (MIC) growth inhibition test, 96 well plates, OD; format: cell-based; details: Table 1
Procedure: (§9) The MIC test is a test on growth inhibition. Estimation of the Minimum Inhibitory Concentration (MIC) is executed in 96 well plates. Through the comparison of bacterial growth with positive and negative controls via optical density (OD), different concentrations of given test substances are evaluated. Bacteria are cultivated under adjusted conditions based on information of the German Collection of Microorganisms and Cell Cultures (DSMZ) and stored in 50% Glycerol prior to use. Afterwards, the following method was applied: Adding growth medium (according to microorganism) to each well of the microplate. Adding the test-substances in different concentrations, positive controls (water controls only with medium) and negative controls (benchmarks according to organism). Adding the microorganism in a concentration of 10^6 CFU/ml (CFU=colony forming units). Incubation of the microplates at appropriate conditions. According to resulting growth, substance concentrations are labelled either as inhibiting or not and the corresponding MIC is defined as the lowest concentration where a complete growth inhibition is visible. Experiments at concentration limits (highest concentration labelled as growth and lowest concentration labelled as inhibiting) are performed at least twice.

[3] = system: Candida albicans; experiment: Minimum Inhibitory Concentration (MIC) growth inhibition test; format: cell-based; details: Table 1
Procedure: as §9

[4] = system: Corynebacterium jeikeium; experiment: as above; format: cell-based; details: Table 1
Procedure: as §9

[5] = system: Escherichia coli; experiment: as above; format: cell-based; details: Table 1
Procedure: as §9

[6] = system: Propionibacterium acnes; experiment: as above; format: cell-based; details: Cutibacterium acnes; Table 1; >5000: 5000 ppm tested, no growth inhibition
Procedure: as §9

[7] = system: Staphylococcus hominis; experiment: Minimum Inhibitory Concentration (MIC) growth inhibition test and Kull Synergy Index; format: cell-based
Procedure: as §1, §2, §3, §4, §5, §6, §7, §8

[8] = Malodour coverage sensory test, trained panel, filter paper with sweat malodour; details: for malodour coverage ranking 6 h: after 6 h; for malodour coverage ranking 24 h: after 24 h; for malodour coverage ranking 48 h: after 48 h
Procedure: Malodour coverage was tested in an established setup with a trained panel (n=5-9). For this sensory test, a defined amount of the material was applied on a filter paper together with a defined amount of sweat malodour. For evaluation, the panelists were asked to rate the individual samples on a scale from 0 to 10 (0: odourless; 10: strongest imaginable). The results of the malodour rating for all materials were ranked and the position of the individual materials compared over time. A synergistic effect regarding reduction of malodour was found for all mixtures of Frescolat ML and 1,2-heptanediol after 24 h and 48 h, respectively.

[9] = Table 4, single substances and mixtures with further cooling agents
[10] = Ranking: 1 = highest malodour to 6 = lowest malodour, single diols at 0.5%, Table 7
[11] = Ranking: 1 = highest malodour to 6 = lowest malodour, single diols at 0.5%, Table 8
[12] = Table 3, single substances and mixtures with menthyl lactate
[13] = Table 3, single substances and mixtures with menthyl lactate, read-out: MIC (ppm) Staphylococcus hominis
[14] = Ranking: 1 = lowest malodour to 6 = strongest malodour, Table 6
[15] = Ranking: 1 = lowest malodour to 6 = strongest malodour, Table 5
[16] = Ranking: 1 = highest malodour to 6 = lowest malodour, single diols at 0.5%, Table 9

CC1CCC(C(C)C)C(O)C1 (stereo not drawn) [Menthol]
MIC [1, 9]: 1000 µg/mL

CCCCCCCCCC(O)CO (stereo not drawn) [1,2-C11, 1,2-undecandiol]
MIC [2]: 125 µg/mL (≈ 664 µM) | MIC [3]: 64 µg/mL (≈ 340 µM) | MIC [4]: 250 µg/mL (≈ 1330 µM) | MIC [5]: 250 µg/mL (≈ 1330 µM) | MIC [6]: 250 µg/mL (≈ 1330 µM) | MIC ([7]; Table 1, read-out: Minimum Inhibitory Concentration (MIC) Staphylococcus hominis): 125 µg/mL

CCCCCCC(O)C(C)O (stereo not drawn) [2,3-C9, 2,3-nonanediol]
MIC [1, 9]: 2500 µg/mL

CCCCC(O)C(C)O (stereo not drawn) [2,3-C7, 2,3-Heptanediol]
MIC [1, 9]: 12500 µg/mL | malodour coverage ranking 6 h [8, 10]: 3.2 | malodour coverage ranking 24 h [8, 10]: 3.5

CCCCCCC(O)CO (stereo not drawn) [1,2-C8, 1,2-Octanediol]
malodour coverage ranking 24 h [8, 11]: 2.8

CC1CCC(C(C)C)C(OC(=O)C(C)O)C1 (single isomer, unassigned; (-)) [Menthyl lactate, (−)-Menthyl lactate]
MIC [1, 12]: 250 µg/mL | MIC [7, 13]: 250 µg/mL | malodour coverage ranking 6 h [8, 14]: 3.6 | malodour coverage ranking 24 h [8, 15]: 3.6 | malodour coverage ranking 24 h [8, 14]: 3.9 | malodour coverage ranking 48 h [8, 15]: 3.1

CCCCCC(O)C(C)O (stereo not drawn) [2,3-C8, 2,3-Octanediol]
malodour coverage ranking 6 h [8, 16]: 2.3 | malodour coverage ranking 24 h [8, 11]: 3.2 | malodour coverage ranking 24 h [8, 16]: 3.4

CCCCCC(O)CO (stereo not drawn) [1,2-C7, 1,2-heptanediol]
MIC [1, 12]: 5000 µg/mL | MIC (ppm) Corynebacterium xerosis [1, 9]: 5 000 ppm | MIC [7, 13]: 10000 µg/mL | malodour coverage ranking 6 h [8, 10]: 2.3 | malodour coverage ranking 6 h [8, 16]: 3.5 | malodour coverage ranking 24 h [8, 10]: 3.4 | malodour coverage ranking 24 h [8, 16]: 3.1 | malodour coverage ranking 24 h [8, 15]: 3.3 | malodour coverage ranking 48 h [8, 15]: 3.3

CC1CCC(C(C)C)C(OCC(O)CO)C1 (stereo not drawn) [3-((−)-Menthoxy)propane-1,2-diol]
MIC [1, 9]: 500 µg/mL

CCCCCCCC(O)CO (stereo not drawn) [1,2-C9, 1,2-nonanediol]
MIC (ppm) Corynebacterium xerosis [1, 12]: 2 500 ppm | MIC (ppm) Corynebacterium xerosis [1, 9]: 2 500 ppm | MIC [7, 13]: 1000 µg/mL | malodour coverage ranking 6 h [8, 14]: 4.2 | malodour coverage ranking 24 h [8, 14]: 3.9
